Data from PubChem BioAssay AID1745844 (Carcinogenic Potency Database (CPDB), 2022).
Values joined by “and” are separate entries in the source; they are usually repeats but may differ in a detail not shown here. Equal entries are not always repeated. Active and inactive are the calls of the source. The rule behind the calls is not given here.

Tested on: rodent lifetime carcinogenesis bioassay, tumor incidence TD50
Experiment: chronic cancer bioassays in animals – CPDB, compiled studies (AID 1745844)
[1] = mouse, strain B6AKF1, females, oral dosing, site: any site (literature study), lesion: several types, types named in the paper, dosed 76 weeks, study length 76 weeks
[2] = mouse, strain B6AKF1, females, oral dosing, site: liver, lesion: hepatoma, dosed 76 weeks, study length 76 weeks
[3] = mouse, strain B6AKF1, males, oral dosing, site: any site (literature study), lesion: several types, types named in the paper, dosed 76 weeks, study length 76 weeks
[4] = mouse, strain B6AKF1, males, oral dosing, site: liver, lesion: hepatoma, dosed 76 weeks, study length 76 weeks
[5] = mouse, strain B6AKF1, males, oral dosing, site: lung, lesion: adenoma, dosed 76 weeks, study length 76 weeks
[6] = mouse, strain B6C3F1, females, oral dosing, site: any site (literature study), lesion: several types, types named in the paper, dosed 76 weeks, study length 76 weeks
[7] = mouse, strain B6C3F1, females, oral dosing, site: liver, lesion: hepatoma, dosed 76 weeks, study length 76 weeks
[8] = mouse, strain B6C3F1, females, oral dosing, site: lung, lesion: adenoma, dosed 76 weeks, study length 76 weeks
[9] = mouse, strain B6C3F1, males, oral dosing, site: any site (literature study), lesion: several types, types named in the paper, dosed 76 weeks, study length 76 weeks
[10] = mouse, strain B6C3F1, males, oral dosing, site: liver, lesion: hepatoma, dosed 76 weeks, study length 76 weeks
[11] = mouse, strain B6C3F1, males, oral dosing, site: lung, lesion: adenoma, dosed 76 weeks, study length 76 weeks

Row | SMILES | carcinogen call [2] | TD50 [3] | carcinogen call [4] | TD50 [5] | TD50 [6] | carcinogen call [7] | TD50 [8] | TD50 [9] | TD50 [10] | TD50 [11] | other results
1 | O=S(=O)(Oc1ccc(Cl)cc1Cl)c1ccccc1 | negative (inactive) | 1680 mg/kg/day (inactive) | negative (inactive) | 866 mg/kg/day (inactive) | 929 mg/kg/day (inactive) | negative (inactive) | 1920 mg/kg/day (inactive) | 218 mg/kg/day (inactive) | 266 mg/kg/day (inactive) | 924 mg/kg/day (inactive) | TD50 [1]: 867 mg/kg/day (inactive); TD50 (mouse, strain B6AKF1, females, oral dosing, site: lung, lesion: several types, types named in the paper, dosed 76 weeks, study length 76 weeks): 1920 mg/kg/day (inactive)
2 | CC(=O)N[C@@H](CC(C)C)C(=O)N[C@@H](CC(C)C)C(=O)NC(C=O)CCCN=C(N)N (some centres not stated) |  |  |  |  |  |  |  |  |  |  | TD50 (mouse, strain A/JJms, females, in feed, site: liver, lesion: liver-cell tumor, type B, dosed 68 weeks, study length 68 weeks): 933 mg/kg/day (inactive); TD50 (mouse, strain A/JJms, females, in feed, site: lung, lesion: several types, types named in the paper, dosed 68 weeks, study length 68 weeks): 229 mg/kg/day (inactive); TD50 (mouse, strain A/JJms, males, in feed, site: liver, lesion: several types, types named in the paper, dosed 68 weeks, study length 68 weeks): 55.8 mg/kg/day; TD50 (mouse, strain A/JJms, males, in feed, site: lung, lesion: several types, types named in the paper, dosed 68 weeks, study length 68 weeks): 422 mg/kg/day (inactive)
3 | CN(C)C(=O)Nc1ccc(Cl)c(Cl)c1 | negative (inactive) | 260 mg/kg/day (inactive) | negative (inactive) | 437 mg/kg/day (inactive) | 388 mg/kg/day (inactive) | negative (inactive) | 600 mg/kg/day (inactive) | 361 mg/kg/day (inactive) | 1150 mg/kg/day (inactive) | 1150 mg/kg/day (inactive) | carcinogen call [1]: negative (inactive); carcinogen call (mouse, strain B6AKF1, females, oral dosing, site: lung, lesion: adenoma, dosed 76 weeks, study length 76 weeks): negative (inactive)
4 | CCC=C(CC)[N+](=O)[O-] |  |  |  |  |  |  |  |  |  |  | TD50 (mouse, strain Swiss Webster, females, inhaled, site: lung, lesion: adenocarcinoma, dosed 62 weeks, study length 62 weeks): 0.363 mg/kg/day and 0.768 mg/kg/day; TD50 (mouse, strain Swiss Webster, females, inhaled, site: lung, lesion: several types, types named in the paper, dosed 62 weeks, study length 62 weeks): 0.687 mg/kg/day; TD50 (mouse, strain Swiss, both sexes, inhaled, site: lung, lesion: adenocarcinoma, dosed 62 weeks, study length 62 weeks): 0.346 mg/kg/day; TD50 (rat, strain CFN, both sexes, inhaled, site: lung, lesion: undifferentiated carcinoma, dosed 158 weeks, study length 158 weeks): 8.66 mg/kg/day
